For series [1], the system named is patients with ASD. Put plainly: Clinical Global Impression-Improvement (CGI-I). The format is in vivo, human. The conditions noted are these: vs control group; P<0.05 only for combination. The method, then: FIG. 2. Proportion of subjects displaying improvement in CGI-I overtime among all subjects within a treatment condition.
Clinical Global Impression (CGI) was assessed to evaluate ASD symptoms and the relative extent of improvement in symptoms at each visiting time. […] The waterfall data of CGI score reduction in each group is shown in supplement FIG. 6.
This clinical trial is a randomized, double-blind, and placebo-controlled study in accordance with the Consolidated Standards of Reporting Trials (CONSORT) guidelines. Subjects were randomized to two groups with 1:1 ratio into this two-stage study. To achieve a statistical power of 80% for primary outcomes with a large effect size of 0.8 (Cohen's d) assumed, a total of 60 participants (30 in each arm) were required. However, as we are primarily interested in studying the preliminary effects of the proposed treatment, we enrolled and randomized 35 subjects who were included in the data analysis. In stage 1, the probiotics group received oral probiotics PS128 while the placebo group received oral placebo for 16 weeks. In stage 2, both groups continued their respective administration and simultaneously added intranasal oxytocin spray. The treatment proceeded for a total of 28 weeks with 3 visits for outcomes measurement at 0, 16 weeks, and 28 weeks (V1, V2, and V3, respectively). […]

In series [2] the test system is mouse models of ASD. The conditions noted are these: two mouse models of ASD; cited from earlier work.
The conditions of series [3]: 32 IU per day, patients age 3-8 years old; cited from earlier work.

Consider 1 compound from patent publication US20240100104A1, “METHODS AND COMPOSITION FOR THE TREATMENT OF AUTISM SPECTRUM DISORDER” (The General Hospital Corporation, priority 2020, published 2024).

Regarding `CC[C@H](C)[C@@H]1NC(=O)[C@H](Cc2ccc(O)cc2)NC(=O)[C@@H](N)CSSC[C@@H](C(=O)N2CCC[C@H]2C(=O)N[C@@H](CC(C)C)C(=O)NCC(N)=O)NC(=O)[C@H](CC(N)=O)NC(=O)[C@H](CCC(N)=O)NC1=O` [OXT, Oxytocin], the “proportion of subjects showing improvement in CGI-I (CGI-I≤3)” value in series [1] is given as “non-significant, though a trend of improvement”. Further, in series [2], the effect on sociability entry is recorded as “enhanced sociability”. Moreover, the safety of dosage result in series [3] is “safe and adequate”.
